These results are taken from PMC11286754 (Nature Communications, 2024).

Test [1] addresses T1, SMTA (transaminase from Shimia marina) (Shimia marina, UniProt A0A0P1EM06). The format is binding.
For test [2], the target named is T1, SMTA (transaminase from Shimia marina). The format is binding. The source holds these as a separate data set.

T1 sequence (A0A0P1EM06 1-462 limits assumed): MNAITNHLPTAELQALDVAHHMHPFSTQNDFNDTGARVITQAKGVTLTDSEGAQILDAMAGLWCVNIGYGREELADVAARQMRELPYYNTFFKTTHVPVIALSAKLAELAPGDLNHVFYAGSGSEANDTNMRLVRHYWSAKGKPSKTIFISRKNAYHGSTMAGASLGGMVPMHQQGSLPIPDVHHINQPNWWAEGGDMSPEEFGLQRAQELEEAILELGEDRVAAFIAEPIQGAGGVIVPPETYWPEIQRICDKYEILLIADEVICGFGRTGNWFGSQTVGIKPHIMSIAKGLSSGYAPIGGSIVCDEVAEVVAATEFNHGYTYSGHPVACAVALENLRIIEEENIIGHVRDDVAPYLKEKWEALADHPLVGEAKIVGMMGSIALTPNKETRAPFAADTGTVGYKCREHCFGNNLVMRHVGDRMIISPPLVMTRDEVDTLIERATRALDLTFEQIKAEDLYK

`Cc1ncc(COP(=O)(O)O)c(C=O)c1O` [PLP, pyridoxal-5′-phosphate]: the “X-ray crystal structure, 2.14 A” value in test [1] was “The apparent electron density indicated a Schiff base between PLP and the catalytic lysine K291”.

Take `Cc1ncc(COP(=O)(O)O)c(CN)c1O` [PMP]: in test [2], the cofactor release assay entry was “binding affinity of both PLP and PMP compared to that of wild-type SMTA”.
